From patent US11464783B2, “Heterocyclic compounds” (Aligos Therapeutics, Inc., priority 2019, dated 2022)
pEC50: −log10 of the molar value.

These compounds were tested on HBV (assay: HBV-DNA Antiviral Assay Using HepG2.117 Cells). Settings: intracellular HBV DNA by qPCR, day 4.
Type: cell-based
Protocol: The following assay procedure describes the HBV antiviral assay, using HepG2.117 cells, which carry a stably integrated genotype D HBV genome under the control of a Tet-off promoter, and intracellular HBV DNA quantification as endpoint. Cell viability is assessed in parallel by measuring the intracellular ATP content using ATPlite (Perkin Elmer).
On day 0, HepG2.117 cells (which are maintained in routine cell culture with doxycycline present in the medium at a final concentration of 1 μg/mL) were seeded in 96-well plates (white with clear bottom) at a density of 2.0×10^4 cells/well (0.1 mL/well) in medium without doxycycline to induce pgRNA transcription and subsequent formation of HBV particles. The cells were incubated at 37° C. and 5% CO2.
On day 1, medium was removed from each well, the test articles were diluted in culture medium without doxcycyline and 100 μL was added to cell culture wells (9 concentrations, 4-fold dilution). For each plate, 6 untreated (merely DMSO) wells were included. The final concentration of DMSO in the culture medium was 2%. Each plate was prepared in duplicate (one for HBV DNA extraction, one for ATPlite measurement). The cells were incubated at 37° C. and 5% CO2 for 3 days.
On day 4, cell viability was assessed using ATPlite and cell lysates were prepared for HBV DNA extraction and subsequent quantification by qPCR.
Medium was removed from each well and 100 μL of 0.33% NP-40 in H2O was added to each well. Plates were sealed, incubated at 4° C. for 5 mins, vortexed extensively and centrifuged briefly. Next, 35 μL of lysate was added to 65 μL QuickExtract DNA Extraction Solution (Epicentre) in a PCR plate for each well. PCR plate was incubated at 65° C. for 6 mins, 98° C. for 2 mins and finally cooled to 4° C. HBV DNA was then quantified by qPCR with HBV-specific primers and probes as specified in Table 2 using the Bio-Rad SSOAdvanced Universal Probes Supermix on a CFX96 machine (Bio-Rad). The PCR cycle program consisted of 95° C. for 3 mins, followed by 40 cycles at 95° C. for 10 sec and 60° C. for 30 sec.
A DNA standard was prepared by dilution of an IDT gBlock corresponding to the amplicon with concentrations ranging from 10^2 to 10^8 copies/input (i.e. per 4 μL) and used to generate a standard curve by plotting Cq values vs. HBV DNA standard concentration. The quantity of HBV DNA in each sample was determined by interpolating from the standard curve.
Cell viability was calculated as follows: % Cell viability=(luminescence value of test sample)/(average luminescence value of 2% DMSO control)×100%. HBV DNA inhibition was calculated as follows: 100−(HBV DNA copy number of test sample)/(average HBV DNA copy number of 2% DMSO control)×100%. No normalization to entecavir was required due to the excellent dynamic window of this assay. The CC50, EC so and EC90 values were determined by dose-response curves fitted by GraphPad Prism using “log (agonist) vs. response—Variable slope”.
For CC1(c2ncc(Cc3ccccc3)s2)CN(C(=O)c2ccc(Br)c(Cl)c2)CCS1(=O)=O (racemic) [Compound 36a, (4-bromo-3-chloro-phenyl)-[rac-(2S)-2-(5-benzylthiazol-2-yl)-2-methyl-1,1-dioxo-1,4-thiazinan-4-yl]methanone], the pEC50 was 5.30 to 6.30. Compound CC1(c2ncc(Cc3ccccc3)s2)CN(C(=O)c2ccc(Br)c(Cl)c2)CCS1(=O)=O (racemic) [Compound 36b, (4-bromo-3-chloro-phenyl)-[rac-(2R)-2-(5-benzylthiazol-2-yl)-2-methyl-1,1-dioxo-1,4-thiazinan-4-yl]methanone] has a pEC50 of 6.30 to 7.00. C[C@@H](c1cnc([C@@]2(F)CN(C(=O)c3ccc(Br)c(Cl)c3)CCS2(=O)=O)s1)c1ccccc1F (racemic) [Compound 42a, (rac-2R)-4-(4-bromo-3-chlorobenzoyl)-2-fluoro-2-[5-[(rac-1R)-1-(2-fluorophenyl)ethyl]-1,3-thiazol-2-yl]-1λ^6-thiomorpholine-1,1-dione] gave a pEC50 of no less than 7.00. C[C@H](c1cnc(C2(F)CN(C(=O)c3ccc(Br)c(Cl)c3)CCS2(=O)=O)s1)c1ccccc1F (mixture of isomers) [Compound 42b, (rac-2R)-4-(4-bromo-3-chlorobenzoyl)-2-fluoro-2-[5-[(rac-1S)-1-(2-fluorophenyl)ethyl]-1,3-thiazol-2-yl]-1λ^6-thiomorpholine-1,1-dione] was tested, and the pEC50 was no less than 7.00. For C[C@@H](c1cnc(C2(F)CN(C(=O)c3ccc(Br)c(Cl)c3)CCS2(=O)=O)s1)c1ccccc1F (mixture of isomers) [Compound 42c, (rac-2S)-4-(4-bromo-3-chlorobenzoyl)-2-fluoro-2-[5-[(rac-1R)-1-(2-fluorophenyl)ethyl]-1,3-thiazol-2-yl]-1λ^6-thiomorpholine-1,1-dione], the pEC50 was less than 5.30. For C[C@H](c1cnc(C2(F)CN(C(=O)c3ccc(Br)c(Cl)c3)CCS2(=O)=O)s1)c1ccccc1F (mixture of isomers) [Compound 42d, (rac-2S)-4-(4-bromo-3-chlorobenzoyl)-2-fluoro-2-[5-[(rac-1S)-1-(2-fluorophenyl)ethyl]-1,3-thiazol-2-yl]-1λ^6-thiomorpholine-1,1-dione], the pEC50 was 5.30 to 6.30. In the case of O=C(c1ccc(Br)c(Cl)c1)N1CCS(=O)(=O)C(F)(c2ncc(Cc3ccccc3-c3ncccn3)s2)C1 (racemic) [Compound 44a, (rac-2R)-4-(4-bromo-3-chlorobenzoyl)-2-fluoro-2-(5-[[2-(pyrimidin-2-yl)phenyl]methyl]-1,3-thiazol-2-yl)-1λ^6-thiomorpholine-1,1-dione], the pEC50 was no less than 7.00. Work on O=C(c1ccc(Br)c(Cl)c1)N1CCS(=O)(=O)C(F)(c2ncc(Cc3ccccc3-c3ncccn3)s2)C1 (racemic) [Compound 44b, (rac-2S)-4-(4-bromo-3-chlorobenzoyl)-2-fluoro-2-(5-[[2-(pyrimidin-2-yl)phenyl]methyl]-1,3-thiazol-2-yl)-1λ^6-thiomorpholine-1,1-dione] yielded a pEC50 of 5.30 to 6.30. O=C(c1ccc(Cl)c(F)c1)N1CCS(=O)(=O)C(c2cccs2)C1 (single isomer, unassigned) [Compound 7a, (4-chloro-3-fluoro-phenyl)-[1,1-dioxo-2-(2-thienyl)-1,4-thiazinan-4-yl]methanone] gave a pEC50 of 6.30 to 7.00. In the case of O=C(c1ccc(Cl)c(F)c1)N1CCS(=O)(=O)C(c2cccs2)C1 (single isomer, unassigned) [Compound 7b, (4-chloro-3-fluoro-phenyl)-[1,1-dioxo-2-(2-thienyl)-1,4-thiazinan-4-yl]methanone], the pEC50 was 5.30 to 6.30. For Cc1cc(Cl)ccc1C(=O)N1CCS(=O)(=O)C(c2cccs2)C1 (single isomer, unassigned) [Compound 12a, (4-chloro-2-methyl-phenyl)-[1,1-dioxo-2-(2-thienyl)-1,4-thiazinan-4-yl]methanone], the pEC50 was less than 5.30. Work on Cc1cc(Cl)ccc1C(=O)N1CCS(=O)(=O)C(c2cccs2)C1 (single isomer, unassigned) [Compound 12b, (4-chloro-2-methyl-phenyl)-[1,1-dioxo-2-(2-thienyl)-1,4-thiazinan-4-yl]methanone] yielded a pEC50 of 5.30 to 6.30.
